Assay results taken from patent US20240210412A1, “SULFONYL-TRIAZOLE COMPOUNDS USEFUL AS LIGANDS AND INHIBITORS OF PROSTAGLANDIN REDUCTASE 2” (University of Virginia Patent Foundation, priority 2021, published 2024).

Columns and labels:
Assay in all cases: SILAC LC-MS ABPP
Assay type in all cases: cell-based
Details in all cases: 25 μM 2 h, live DM93 cells
Q15293 = molecular target: T1, Q15293 (Homo sapiens, UniProt Q15293)
T1 construct: performing SuTEx compound screening directly in cells; endogenous in cells; host or cells: DM93 cells (SILAC), soluble fraction
Summary of the method: (§1)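 Ligand engagement is measured as loss of HHS-475 probe labelling at specific tyrosines. SILAC DM93 melanoma cells were treated in situ (25 μM ligand vs DMSO, 2 h, 37 °C; then 100 μM probe, 2 h), and modified peptides were quantified by high-resolution LC-MS/MS after desthiobiotin tagging and avidin capture.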

P25789 = molecular target: T2, P25789 (Homo sapiens, UniProt P25789)
T2 construct: endogenous in cells; host or cells: DM93 (SILAC)
Summary of the method: as §1

P68371 = molecular target: T3, P68371 (Homo sapiens, UniProt P68371)
T3 construct: performing SuTEx compound screening directly in cells; endogenous in cells; host or cells: DM93 cells (SILAC)
Summary of the method: as §1

Q92878 = molecular target: T4, Q92878 (Homo sapiens, UniProt Q92878)
T4 construct: endogenous in cells; host or cells: DM93 cells (SILAC), live-cell treatment
Summary of the method: as §1

P46940 = molecular target: T5, P46940 (Homo sapiens, UniProt P46940)
T5 construct: endogenous in cells; host or cells: DM93 cells (SILAC)
T5 sequence (P46940 whole entry): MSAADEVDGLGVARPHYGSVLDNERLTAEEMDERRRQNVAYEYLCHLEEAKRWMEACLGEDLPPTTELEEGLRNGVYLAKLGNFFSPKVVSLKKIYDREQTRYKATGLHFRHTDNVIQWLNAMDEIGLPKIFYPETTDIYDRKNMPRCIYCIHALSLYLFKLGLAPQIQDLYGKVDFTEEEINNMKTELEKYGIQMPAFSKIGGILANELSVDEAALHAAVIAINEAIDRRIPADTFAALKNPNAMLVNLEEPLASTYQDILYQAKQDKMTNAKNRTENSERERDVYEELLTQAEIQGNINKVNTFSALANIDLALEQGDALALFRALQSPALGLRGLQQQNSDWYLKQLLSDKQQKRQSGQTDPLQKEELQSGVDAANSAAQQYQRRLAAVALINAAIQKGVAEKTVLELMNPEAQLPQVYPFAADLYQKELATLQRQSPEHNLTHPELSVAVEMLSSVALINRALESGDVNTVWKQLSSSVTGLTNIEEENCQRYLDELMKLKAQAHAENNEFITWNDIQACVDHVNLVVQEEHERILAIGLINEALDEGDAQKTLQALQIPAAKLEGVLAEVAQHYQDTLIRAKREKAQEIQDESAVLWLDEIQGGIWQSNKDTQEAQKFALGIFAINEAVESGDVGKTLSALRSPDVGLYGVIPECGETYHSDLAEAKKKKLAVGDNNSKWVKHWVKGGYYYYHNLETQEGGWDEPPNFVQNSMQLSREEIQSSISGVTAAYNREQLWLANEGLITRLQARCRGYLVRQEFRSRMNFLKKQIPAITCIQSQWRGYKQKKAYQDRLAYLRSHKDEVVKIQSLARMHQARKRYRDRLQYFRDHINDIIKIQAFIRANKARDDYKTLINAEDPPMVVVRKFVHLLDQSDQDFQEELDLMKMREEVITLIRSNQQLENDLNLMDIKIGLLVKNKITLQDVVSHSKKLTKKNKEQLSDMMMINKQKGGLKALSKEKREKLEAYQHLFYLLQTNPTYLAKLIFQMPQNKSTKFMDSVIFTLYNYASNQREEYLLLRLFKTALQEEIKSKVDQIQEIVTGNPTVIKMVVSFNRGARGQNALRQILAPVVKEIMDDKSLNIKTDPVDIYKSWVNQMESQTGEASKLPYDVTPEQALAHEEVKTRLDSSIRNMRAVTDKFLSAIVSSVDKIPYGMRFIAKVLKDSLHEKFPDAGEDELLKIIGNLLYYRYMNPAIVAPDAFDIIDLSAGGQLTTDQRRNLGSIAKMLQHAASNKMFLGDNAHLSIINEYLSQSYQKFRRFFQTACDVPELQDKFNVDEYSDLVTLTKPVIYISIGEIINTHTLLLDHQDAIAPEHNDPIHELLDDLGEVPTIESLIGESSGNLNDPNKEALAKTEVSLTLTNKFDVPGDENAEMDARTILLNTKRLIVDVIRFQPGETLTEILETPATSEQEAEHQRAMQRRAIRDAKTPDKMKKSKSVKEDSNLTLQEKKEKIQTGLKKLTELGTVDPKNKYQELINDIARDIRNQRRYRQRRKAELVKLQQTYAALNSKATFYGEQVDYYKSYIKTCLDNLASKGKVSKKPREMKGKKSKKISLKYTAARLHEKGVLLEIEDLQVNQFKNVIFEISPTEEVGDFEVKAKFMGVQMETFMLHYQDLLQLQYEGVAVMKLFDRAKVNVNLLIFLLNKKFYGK
Summary of the method: as §1

Q9Y2W1 = molecular target: T6, Q9Y2W1 (Homo sapiens, UniProt Q9Y2W1)
T6 construct: endogenous in cells; host or cells: DM93 cells (SILAC)
Summary of the method: as §1

O60506 = molecular target: T7, O60506 (Homo sapiens, UniProt O60506)
T7 construct: endogenous in cells; host or cells: DM93
Summary of the method: as §1

Q9Y2H2 = molecular target: T8, Q9Y2H2 (Homo sapiens, UniProt Q9Y2H2)
T8 construct: endogenous in cells; host or cells: DM93 cells (SILAC)
Summary of the method: as §1

O95260 = molecular target: T9, O95260 (Homo sapiens, UniProt O95260)
T9 construct: endogenous in cells; host or cells: DM93 cells (SILAC)
Summary of the method: as §1

O00571 = molecular target: T10, O00571 (Homo sapiens, UniProt O00571)
T10 construct: endogenous in cells; host or cells: DM93
Summary of the method: as §1

Q13428 = molecular target: T11, Q13428 (Homo sapiens, UniProt Q13428)
T11 construct: performing SuTEx compound screening directly in cells; endogenous in cells; host or cells: DM93 cells (SILAC), soluble fraction
T11 sequence (Q13428 whole entry): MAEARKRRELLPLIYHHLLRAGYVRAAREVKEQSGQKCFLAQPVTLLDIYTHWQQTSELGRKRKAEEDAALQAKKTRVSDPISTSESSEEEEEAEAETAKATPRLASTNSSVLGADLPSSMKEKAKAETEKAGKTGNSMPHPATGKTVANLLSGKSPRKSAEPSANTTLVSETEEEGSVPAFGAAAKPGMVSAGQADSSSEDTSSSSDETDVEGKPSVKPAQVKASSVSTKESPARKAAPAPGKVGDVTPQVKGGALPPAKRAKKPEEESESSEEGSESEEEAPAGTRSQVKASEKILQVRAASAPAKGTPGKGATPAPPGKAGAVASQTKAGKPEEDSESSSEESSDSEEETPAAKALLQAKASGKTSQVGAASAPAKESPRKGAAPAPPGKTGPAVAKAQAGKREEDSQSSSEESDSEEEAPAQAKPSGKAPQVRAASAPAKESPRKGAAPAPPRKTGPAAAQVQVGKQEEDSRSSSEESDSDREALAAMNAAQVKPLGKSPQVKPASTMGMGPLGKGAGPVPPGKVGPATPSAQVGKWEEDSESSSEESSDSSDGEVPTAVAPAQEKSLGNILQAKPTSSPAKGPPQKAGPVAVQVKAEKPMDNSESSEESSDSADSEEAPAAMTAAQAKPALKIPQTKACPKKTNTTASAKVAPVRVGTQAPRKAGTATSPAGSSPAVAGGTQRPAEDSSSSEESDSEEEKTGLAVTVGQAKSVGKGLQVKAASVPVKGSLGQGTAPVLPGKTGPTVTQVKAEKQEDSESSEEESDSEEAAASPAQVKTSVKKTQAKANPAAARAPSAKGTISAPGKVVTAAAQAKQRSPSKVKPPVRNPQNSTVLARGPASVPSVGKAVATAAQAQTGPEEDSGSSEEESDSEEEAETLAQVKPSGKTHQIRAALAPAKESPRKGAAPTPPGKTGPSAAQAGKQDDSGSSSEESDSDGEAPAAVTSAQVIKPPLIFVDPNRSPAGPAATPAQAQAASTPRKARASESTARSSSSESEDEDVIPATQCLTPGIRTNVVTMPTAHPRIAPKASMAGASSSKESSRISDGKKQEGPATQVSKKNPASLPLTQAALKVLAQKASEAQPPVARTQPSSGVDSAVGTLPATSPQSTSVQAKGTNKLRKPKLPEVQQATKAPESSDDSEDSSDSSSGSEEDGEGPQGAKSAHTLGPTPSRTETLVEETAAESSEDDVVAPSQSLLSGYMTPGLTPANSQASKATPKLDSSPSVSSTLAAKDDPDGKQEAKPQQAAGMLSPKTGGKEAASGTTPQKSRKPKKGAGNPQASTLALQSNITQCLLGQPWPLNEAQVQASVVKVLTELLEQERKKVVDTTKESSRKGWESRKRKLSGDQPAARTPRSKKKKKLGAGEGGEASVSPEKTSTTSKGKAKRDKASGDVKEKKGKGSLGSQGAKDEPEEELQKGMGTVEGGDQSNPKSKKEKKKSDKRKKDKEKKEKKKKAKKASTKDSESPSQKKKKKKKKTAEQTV
Summary of the method: as §1

Q8N6H7 = molecular target: T12, Q8N6H7 (Homo sapiens, UniProt Q8N6H7)
T12 construct: endogenous in cells; host or cells: DM93 cells (SILAC), live-cell treatment
Summary of the method: as §1

P50749 = molecular target: T13, P50749 (Homo sapiens, UniProt P50749)
T13 construct: Probe-modified proteins from the soluble fraction were conjugated to a desthiobiotin-azide tag; endogenous in cells; host or cells: DM93 cells (SILAC)
Summary of the method: as §1

Q9P2B4 = molecular target: T14, Q9P2B4 (Homo sapiens, UniProt Q9P2B4)
T14 construct: endogenous in cells; host or cells: DM93 cells (SILAC)
Summary of the method: as §1

P06396 = molecular target: T15, P06396 (Homo sapiens, UniProt P06396)
T15 construct: endogenous in cells; host or cells: DM93 cells (SILAC)
T15 sequence (P06396 52-782 limits assumed): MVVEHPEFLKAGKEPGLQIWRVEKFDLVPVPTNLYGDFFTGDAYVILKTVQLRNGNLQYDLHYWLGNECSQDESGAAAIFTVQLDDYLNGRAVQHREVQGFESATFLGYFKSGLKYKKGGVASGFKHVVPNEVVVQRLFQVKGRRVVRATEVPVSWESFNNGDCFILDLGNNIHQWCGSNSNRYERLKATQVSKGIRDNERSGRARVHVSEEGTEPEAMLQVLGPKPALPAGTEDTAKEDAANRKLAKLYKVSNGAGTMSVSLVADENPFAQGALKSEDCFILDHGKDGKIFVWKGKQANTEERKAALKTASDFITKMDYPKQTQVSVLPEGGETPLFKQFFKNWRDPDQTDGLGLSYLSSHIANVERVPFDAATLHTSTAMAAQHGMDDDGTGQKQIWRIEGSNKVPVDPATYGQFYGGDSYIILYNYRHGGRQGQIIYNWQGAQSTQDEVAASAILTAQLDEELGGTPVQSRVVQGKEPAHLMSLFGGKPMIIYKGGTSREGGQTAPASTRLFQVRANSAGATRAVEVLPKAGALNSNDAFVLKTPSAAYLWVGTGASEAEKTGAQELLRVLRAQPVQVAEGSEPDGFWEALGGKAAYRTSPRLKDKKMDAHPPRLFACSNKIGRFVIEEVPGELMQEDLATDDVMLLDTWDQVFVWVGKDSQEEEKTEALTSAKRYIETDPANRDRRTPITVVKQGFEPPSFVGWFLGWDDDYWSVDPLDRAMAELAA
Summary of the method: as §1

O00267 = molecular target: T16, O00267 (Homo sapiens, UniProt O00267)
T16 construct: endogenous in cells; host or cells: DM93
Summary of the method: as §1

P30086 = molecular target: T17, P30086 (Homo sapiens, UniProt P30086)
T17 construct: endogenous in cells; host or cells: DM93 (SILAC)
T17 sequence (P30086 whole entry): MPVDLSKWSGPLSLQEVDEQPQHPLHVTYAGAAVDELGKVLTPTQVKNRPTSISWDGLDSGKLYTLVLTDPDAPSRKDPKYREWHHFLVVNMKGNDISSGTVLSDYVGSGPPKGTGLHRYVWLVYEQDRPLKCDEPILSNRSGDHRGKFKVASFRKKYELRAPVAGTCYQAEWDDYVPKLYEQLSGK
Summary of the method: as §1

Q9BUJ2 = molecular target: T18, Q9BUJ2 (Homo sapiens, UniProt Q9BUJ2)
T18 construct: endogenous in cells; host or cells: DM93 cells (SILAC), treated live; soluble proteome analysed
T18 sequence (Q9BUJ2 whole entry): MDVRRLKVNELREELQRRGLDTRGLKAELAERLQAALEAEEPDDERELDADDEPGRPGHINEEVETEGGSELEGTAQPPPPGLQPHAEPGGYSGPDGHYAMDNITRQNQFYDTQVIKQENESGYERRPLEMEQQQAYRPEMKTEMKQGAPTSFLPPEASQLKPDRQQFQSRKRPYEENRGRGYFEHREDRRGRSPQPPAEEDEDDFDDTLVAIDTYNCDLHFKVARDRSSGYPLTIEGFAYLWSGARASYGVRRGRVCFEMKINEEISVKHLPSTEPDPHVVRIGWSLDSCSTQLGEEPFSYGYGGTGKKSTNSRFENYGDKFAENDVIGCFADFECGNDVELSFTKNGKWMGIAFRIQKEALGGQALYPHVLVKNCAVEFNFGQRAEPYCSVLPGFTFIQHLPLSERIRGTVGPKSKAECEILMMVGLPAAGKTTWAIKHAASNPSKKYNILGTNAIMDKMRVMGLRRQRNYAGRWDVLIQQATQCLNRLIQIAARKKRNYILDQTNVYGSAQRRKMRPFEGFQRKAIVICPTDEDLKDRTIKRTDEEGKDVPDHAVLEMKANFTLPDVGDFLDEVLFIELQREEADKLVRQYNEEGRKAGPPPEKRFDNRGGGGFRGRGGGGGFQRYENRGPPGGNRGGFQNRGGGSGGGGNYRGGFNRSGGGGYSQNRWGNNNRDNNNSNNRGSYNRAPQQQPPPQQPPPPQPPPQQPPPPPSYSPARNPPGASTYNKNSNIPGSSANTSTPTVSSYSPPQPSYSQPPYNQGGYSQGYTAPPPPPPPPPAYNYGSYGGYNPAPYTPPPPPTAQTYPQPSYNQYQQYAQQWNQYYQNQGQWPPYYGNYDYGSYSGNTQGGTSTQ
Summary of the method: as §1

## O=C(NC1CC1)c1ccc(S(=O)(=O)n2cncn2)cc1 [HHS-0101, 4-((1H-1,2,4-triazol-1-yl)sulfonyl)-N-cyclopropylbenzamide]
Q15293
  liganded tyrosine site 320: HHS0101.Y (tyrosine sites that showed >80% reductions (SR >5) in probe labeling in cells treated with compounds (liganded sites))
P25789
  liganded tyrosine site 19: HHS0101.Y (tyrosine sites that showed >80% reductions (SR >5) in probe labeling in cells treated with compounds (liganded sites))
  liganded tyrosine site 66: HHS0101.Y|HHS0201.Y|HHS0301.Y (tyrosine sites that showed >80% reductions (SR >5) in probe labeling in cells treated with compounds (liganded sites))
P68371
  liganded tyrosine site 50: HHS0101.Y (tyrosine sites that showed >80% reductions (SR >5) in probe labeling in cells treated with compounds (liganded sites))

## O=C(NCC1CC1)c1ccc(S(=O)(=O)n2cncn2)cc1 [HHS-0201, 4-((1H-1,2,4-triazol-1-yl)sulfonyl)-N-(cyclopropylmethyl)benzamide]
Q92878
  liganded tyrosine site 244: HHS0201.Y|HHS0301.Y (tyrosine sites that showed >80% reductions (SR >5) in probe labeling in cells treated with compounds (liganded sites))
P46940
  liganded tyrosine site 977: HHS0201.Y|HHS0301.Y|HHS0701.Y (tyrosine sites that showed >80% reductions (SR >5) in probe labeling in cells treated with compounds (liganded sites))
Q9Y2W1
  liganded tyrosine site 344: HHS0201.Y|HHS0301.Y (tyrosine sites that showed >80% reductions (SR >5) in probe labeling in cells treated with compounds (liganded sites))
O60506
  liganded tyrosine site 570: HHS0201.Y|HHS0301.Y|HHS0401.Y|HHS0701.Y (tyrosine sites that showed >80% reductions (SR >5) in probe labeling in cells treated with compounds (liganded sites))

## O=C(NCc1ccccc1)c1ccc(S(=O)(=O)n2cncn2)cc1 [HHS-0401, 4-((1H-1,2,4-triazol-1-yl)sulfonyl)-N-benzylbenzamide]
Q9Y2H2
  liganded tyrosine site 887: HHS0401.Y|HHS0701.Y (tyrosine sites that showed >80% reductions (SR >5) in probe labeling in cells treated with compounds (liganded sites))
O95260
  liganded tyrosine site 63: HHS0401.Y|HHS0701.Y (tyrosine sites that showed >80% reductions (SR >5) in probe labeling in cells treated with compounds (liganded sites))
O00571
  liganded tyrosine site 266: HHS0401.Y (tyrosine sites that showed >80% reductions (SR >5) in probe labeling in cells treated with compounds (liganded sites))
Q13428
  liganded tyrosine site 15: HHS0401.Y (tyrosine sites that showed >80% reductions (SR >5) in probe labeling in cells treated with compounds (liganded sites))

## O=C(c1ccc(S(=O)(=O)n2cncn2)cc1)N1CCC(c2ccccc2)CC1 [HHS-0701, (4-((1H-1,2,4-triazol-1-yl)sulfonyl)phenyl)(4-phenylpiperidin-1-yl)methanone]
Q8N6H7
  liganded tyrosine site 445: HHS0701.Y (tyrosine sites that showed >80% reductions (SR >5) in probe labeling in cells treated with compounds (liganded sites))
P50749
  liganded tyrosine site 270: HHS0701.Y (tyrosine sites that showed >80% reductions (SR >5) in probe labeling in cells treated with compounds (liganded sites))
Q9P2B4
  liganded tyrosine site 343: HHS0701.Y (tyrosine sites that showed >80% reductions (SR >5) in probe labeling in cells treated with compounds (liganded sites))
P06396
  liganded tyrosine site 469: HHS0701.Y (tyrosine sites that showed >80% reductions (SR >5) in probe labeling in cells treated with compounds (liganded sites))
O00267
  liganded tyrosine site 249: HHS0701.Y (tyrosine sites that showed >80% reductions (SR >5) in probe labeling in cells treated with compounds (liganded sites))

## O=C(NC1CCCCC1)c1ccc(S(=O)(=O)n2cncn2)cc1 [HHS-0301, 4-((1H-1,2,4-triazol-1-yl)sulfonyl)-N-cyclohexylbenzamide]
P30086
  liganded tyrosine site 106: HHS0301.Y (tyrosine sites that showed >80% reductions (SR >5) in probe labeling in cells treated with compounds (liganded sites))
Q9BUJ2
  liganded tyrosine site 111: HHS0301.Y|HHS0701.Y (tyrosine sites that showed >80% reductions (SR >5) in probe labeling in cells treated with compounds (liganded sites))
